Experimental data: patent US7169932B2 (priority 2001, dated 2007)

Key:
HIV-1 protease (Q7S) = biological target: T1, HIV-1 protease (Q7S) (Human immunodeficiency virus type 1 group M subtype B, UniProt P04585, Q495S); assay: HIV-1 Protease RET Assay; type: biochemical; settings: Ave. Ki (nM), RET assay, Q7S enzyme, pH 4.8, 37 C
T1 construct: made in house
Outline: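 Ki values came from a RET assay on refolded Q7S protease (2 nM active dimer) cleaving RE(EDANS)SQNYPIVQK(DABCYL)R at 5 μM, read at ex 340/em 490 nm. Reactions ran 12 min at 37 C in 0.1M sodium acetate pH 4.8, 1M NaCl, 5 mM DTT, 10% DMSO; curves were fit with the Morrison tight-binding equation.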

HIV-1 = assay: Cytopathic Effect (CPE) Inhibition Assay (XTT dye reduction); type: cell-based; settings: Human immunodeficiency virus 1, 144 h, read-out: Ave CPE EC50 (mM)
Description: T-cell lines, CEM-SS, and MT-2, and viruses HIV-1 RF and HIV-1 NL4–3 (pNL4–3) were obtained from the National Institutes of Health (AIDS Research and Reference Reagent Program, Bethesda, Md.).
The ability of compounds to protect cells against HIV infection was measured by the […] dye reduction method, essentially as described (See Pauwels, R. Balzarini, J. Baba, M. Snoeck, R. Schols, D. Herdewijn, P. Desmyter, J. and De Clercq, E. 1988, “Rapid and automated tetrazolium-based colorimetric assay for the detection of anti-HIV compounds,”. J Virol Methods., 20: 309–321 and Weislow, O. S. Kiser, R. Fine, D. L. Bader, J. Shoemaker, R. H. and Boyd, M. R. 1989. “New soluble-formazan assay for HIV-1 cytopathic effects: application to high-flux screening of synthetic and natural products for AIDS-antiviral activity”. J. Natl. Cancer Inst. 81:577–586). Subject cells were infected with test virus at an moi of 0.025 to 0.819 or mock infected with medium only and added at 2×10^4 cells per well into 96 well plates containing half-log dilutions of test compounds. Six days later, 50 μl of XTT (1 mg/ml XTT tetrazolium, […] phenazine methosulfate) was added to the wells and the plate was reincubated for four hours. Viability, as determined by the amount of XTT formazan produced, was quantified spectrophotometrically by absorbance at 450 nm. Data from CPE assays were expressed as the percent of formazan produced in compound-treated cells compared to formazan produced in wells of uninfected, compound-free cells. The fifty percent effective concentration (EC50) was calculated as the concentration of compound that effected an increase in the percentage of formazan production in infected, compound-treated cells to 50% of that produced by uninfected, compound-free cells. The 50% cytotoxicity concentration (CC50) was calculated as the concentration of compound that decreased the percentage of formazan produced in uninfected, compound-treated cells to 50% of that produced in uninfected, compound-free cells. The therapeutic index was calculated by dividing the cytotoxicity (CC50) by the antiviral activity (EC50).

| SMILES | Ki (HIV-1 protease (Q7S)) [nM] | EC50 (HIV-1) [nM] |
| --- | --- | --- |
| C/C=C\CNC(=O)[C@H]1N(C(=O)[C@@H](O)[C@H](Cc2ccccc2)NC(=O)c2cccc(O)c2C)CSC1(C)C [Example A31, (R)-3-((2S,3S)-2-Hydroxy-3-{[1-(3-hydroxy-2-methyl-phenyl)-methanoyl]-amino}-4-phenyl-butanoyl)-5,5-dimethyl-thiazolidine-4-carboxylic acid (Z)-but-2-enylamide] | < 0.1 | 41 |
| CC(=O)Nc1cccc(CNC(=O)[C@H]2N(C(=O)[C@@H](O)[C@H](Cc3ccccc3)NC(=O)c3cccc(O)c3C)CSC2(C)C)c1 [Example A33, (R)-3-((2S,3S)-2-Hydroxy-3-{[1-(3-hydroxy-2-methyl-phenyl)-methanoyl]-amino}-4-phenyl-butanoyl)-5,5-dimethyl-thiazolidine-4-carboxylic acid 3-acetylamino-benzylamide] | < 0.1 | 577 |
| C/C=C(/C)CNC(=O)[C@H]1N(C(=O)[C@@H](O)[C@H](Cc2ccccc2)NC(=O)c2cccc(O)c2C)CSC1(C)C [Example A34, (R)-3-((2S,3S)-2-Hydroxy-3-{[1-(3-hydroxy-2-methyl-phenyl)-methanoyl]-amino}-4-phenyl-butanoyl)-5,5-dimethyl-thiazolidine-4-carboxylic acid ((Z)-2-methyl-but-2-enyl)-amide] | < 0.1 | 36 |
| Cc1c(O)cccc1C(=O)N[C@@H](Cc1ccccc1)[C@H](O)C(=O)N1CSC(C)(C)[C@H]1C(=O)NC/C=C/C(F)(F)F [Example A40, (R)-3-((2S,3S)-2-Hydroxy-3-{[1-(3-hydroxy-2-methyl-phenyl)-methanoyl]-amino}-4-phenyl-butanoyl)-5,5-dimethyl-thiazolidine-4-carboxylic acid ((E)-4,4,4-trifluoro-but-2-enyl)-amide] | 1.2 | 275 |
| Cc1c(O)cccc1C(=O)N[C@@H](Cc1ccccc1)[C@H](O)C(=O)N1CSC(C)(C)[C@H]1C(=O)NC(C)(C)C#N [Example A41, (R)-3-((2S,3S)-2-Hydroxy-3-{[1-(3-hydroxy-2-methyl-phenyl)-methanoyl]-amino}-4-phenyl-butanoyl)-5,5-dimethyl-thiazolidine-4-carboxylic acid (1-cyano-1,1-dimethyl-methyl)-amide] | 1.6 | 527 |
| CCCOc1cccc(CNC(=O)[C@H]2N(C(=O)[C@@H](O)[C@H](Cc3ccccc3)NC(=O)c3cccc(O)c3C)CSC2(C)C)c1 [Example A43, (R)-3-((2S,3S)-2-Hydroxy-3-{[1-(3-hydroxy-2-methyl-phenyl)-methanoyl]-amino}-4-phenyl-butanoyl)-5,5-dimethyl-thiazolidine-4-carboxylic acid 3-propoxy-benzylamide] | 0.35 | 561 |
| Cc1c(O)cccc1C(=O)N[C@@H](Cc1ccccc1)[C@H](O)C(=O)N1CSC(C)(C)[C@H]1C(=O)NCCC(F)(F)F [Example A45, (R)-3-((2S,3S)-2-Hydroxy-3-{[1-(3-hydroxy-2-methyl-phenyl)-methanoyl]-amino}-4-phenyl-butanoyl)-5,5-dimethyl-thiazolidine-4-carboxylic acid (3,3,3-trifluoro-propyl)-amide] | 0.51 | 165 |
| Cc1c(O)cccc1C(=O)N[C@@H](Cc1ccccc1)[C@H](O)C(=O)N1CSC(C)(C)[C@H]1C(=O)NCc1ccc(OC(F)(F)F)cc1 [Example A47, (R)-3-((2S,3S)-2-Hydroxy-3-{[1-(3-hydroxy-2-methyl-phenyl)-methanoyl]-amino}-4-phenyl-butanoyl)-5,5-dimethyl-thiazolidine-4-carboxylic acid 4-trifluoromethoxy-benzylamide] | 2.3 | 1810 |
| Cc1c(O)cccc1C(=O)N[C@@H](Cc1ccccc1)[C@H](O)C(=O)N1CSC(C)(C)[C@H]1C(=O)NCCCl [Example A49, (R)-3-[(2S,3S)-2-Hydroxy-3-(3-hydroxy-2-methyl-benzoylamino)-4-phenyl-butyryl]-5,5-dimethyl-thiazolidine-4-carboxylic acid (2-chloro-ethyl)-amide] | 1.2 | 130 |
| Cc1ccccc1CN(CCO)C(=O)[C@H]1N(C(=O)[C@@H](O)[C@H](Cc2ccccc2)NC(=O)c2cccc(O)c2C)CSC1(C)C [Example A50, (R)-3-((2S,3S)-2-Hydroxy-3-{[1-(3-hydroxy-2-methyl-phenyl)-methanoyl]-amino}-4-phenyl-butanoyl)-5,5-dimethyl-thiazolidine-4-carboxylic acid (2-hydroxy-ethyl)-(2-methyl-benzyl)-amide] | 0.26 | 224 |
| Cc1ccccc1CNC(=O)[C@H]1N(C(=O)[C@@H](O)[C@H](Cc2ccccc2)NC(=O)c2ccon2)CSC1(C)C [Example B3, Isoxazole-3-carboxylic acid {(1S,2S)-1-benzyl-3-[(R)-5,5-dimethyl-4-(2-methyl-benzylcarbamoyl)-thiazolidin-3-yl]-2-hydroxy-3-oxo-propyl}-amide] | 4 | 409 |
| Cc1ccccc1CNC(=O)[C@H]1N(C(=O)[C@@H](O)[C@H](Cc2ccccc2)NC(=O)c2cc(Cl)on2)CSC1(C)C [Example B4, 5-Chloro-isoxazole-3-carboxylic acid {(1S,2S)-1-benzyl-3-[(R)-5,5-dimethyl-4-(2-methyl-benzylcarbamoyl)-thiazolidin-3-yl]-2-hydroxy-3-oxo-propyl}-amide] | 1.7 | 551 |
| Cc1ccccc1CNC(=O)[C@H]1N(C(=O)[C@@H](O)[C@H](Cc2ccccc2)NC(=O)c2c(C)noc2C)CSC1(C)C [Example B10, 3,5-Dimethyl-isoxazole-4-carboxylic acid {(1S,2S)-1-benzyl-3-[(R)-5,5-dimethyl-4-(2-methyl-benzylcarbamoyl)-thiazolidin-3-yl]-2-hydroxy-3-oxo-propyl}-amide] | < 0.1 | 1100 |
| Cc1ccccc1CNC(=O)[C@H]1N(C(=O)[C@@H](O)[C@H](Cc2ccccc2)NC(=O)c2cccn2C)CSC1(C)C [Example B12, (R)-3-{(2S,3S)-2-Hydroxy-3-[(1-methyl-1H-pyrrole-2-carbonyl)-amino]-4-phenyl-butyryl}-5,5-dimethyl-thiazolidine-4-carboxylic acid 2-methyl-benzylamide] | 0.45 | 1400 |
| Cc1ccccc1CNC(=O)[C@H]1N(C(=O)[C@@H](O)[C@H](Cc2ccccc2)NC(=O)c2c(C)nn(C)c2Cl)CSC1(C)C [Example B14, 3-{(S)-3-[(5-Chloro-1,3-dimethyl-1H-pyrazole-4-carbonyl)-amino]-2-hydroxy-4-phenyl-butyryl}-5,5-dimethyl-thiazolidine-4-carboxylic acid 2-methyl-benzylamide] | 3.7 | 3050 |
| Cc1ccccc1CNC(=O)[C@H]1N(C(=O)[C@@H](O)[C@H](Cc2ccccc2)NC(=O)c2sc(N)nc2C)CSC1(C)C [Example B15, 2-Amino-4-methyl-thiazole-5-carboxylic acid {(S)-1-benzyl-3-[5,5-dimethyl-4-(2-methyl-benzylcarbamoyl)-thiazolidin-3-yl]-2-hydroxy-3-oxo-propyl}-amide] | 2 | 1090 |
| Cc1ccccc1CNC(=O)C1N(C(=O)C(O)C(Cc2ccccc2)NC(=O)C2=NNC(=O)CC2)CSC1(C)C (centres unmarked) [Example B18, 6-Oxo-1,4,5,6-tetrahydro-pyridazine-3-carboxylic acid {1-benzyl-3-[5,5-dimethyl-4-(2-methyl-benzylcarbamoyl)-thiazolidin-3-yl]-2-hydroxy-3-oxo-propyl}-amide] | 0.29 | 457 |
| C=CCNC(=O)[C@H]1N(C(=O)[C@@H](O)[C@H](Cc2ccccc2)NC(=O)c2ccc(C)c(O)c2C)CSC1(C)C [Example B20, (R)-3-((2S,3S)-2-Hydroxy-3-{[1-(3-hydroxy-2,4-dimethyl-phenyl)-methanoyl]-amino}-4-phenyl-butanoyl)-5,5-dimethyl-thiazolidine-4-carboxylic acid allylamide] | 2.1 | 427 |
| C#CCNC(=O)[C@H]1N(C(=O)[C@@H](O)[C@H](Cc2ccccc2)NC(=O)c2ccc(C)c(O)c2C)CSC1(C)C [Example B21, 3-(2-Hydroxy-3-{[1-(3-hydroxy-2,4-dimethyl-phenyl)-methyanoyl]-amino}-4-phenyl-butznoyl)-5,5-dimethyl-thiazolidine-4-carboxylic acid prop-2-ynylamide] | 4.6 | 598 |
